Source: US7465817B2, “Inositolized phospholipids” (Charite-Universitats Medizin Berlin, priority 2002, dated 2008)
pIC50: −log10 of the molar value. Entries after “also recorded” stand apart in the source; their conditions may differ. Read-outs that look alike come from different tables or passages of the source.

Experiments:
[1] = test system: HaCaT cells; assay: cell proliferation ELISA, based on the incorporation of BrdU (Roche); set-up: species or system human; settings: for pIC50: serum-free, text says μmolar range; for antiproliferative effect (in words): non cytotoxic concentrations
Method: (§1) The impact of glycosidation in the glycosidated phospholipid analogs was determined in serum-free cell cultures of human keratinocytes (HaCaT cells) and a squamous carcinoma cell line (SCC-25).
Ino-PAF as obtained in Example 1, Glc-PC and Glc-PAF (synthesis according to Mickeleit, M. et al., Angew. Chem. Int. Ed. Engl. 34:2667-2669 (1995) and 37:351-353 (1998)), and HePC (Hexadecylphosphocholine; commercially available as Miltefosin) were tested in the cell proliferation ELISA, BrdU (col.), Roche in an amount of from 0.6 to 5 μM. Prior to the assay the cells were kept for 2 h in serum-free keratinocyte medium. Assays were performed using 10.000 cells per test, at least quadruple testing.

[2] = test system: HaCaT cells; assay: Viability determined by the LDH assay; format: cell-based; settings: human
[3] = test system: HaCaT cells; assay: cell matrix adhesion to ECM proteins (collagen IV, fibronectin, laminin), crystal violet; format: cell-based, human; settings: for cell matrix adhesion after incubation (summary of advantages): HePC with delayed onset of action; for cell adhesion to extracellular matrix components fibronectin, laminin and collagen IV: treatment for 2 h
Method: In order to study the effect of Glc-PAF, Ino-PAF and Glc-PC (as specified in Example 2) on cell matrix adhesion HaCaT cells were rested 15 min at 4° C. and allowed to adhere to different ECM proteins (collagen IV, fibronectin and laminin) for 90 min at 37° C. The proteins of the extracellular matrix (ECM) were loaded onto the plastic surface by overnight treatment at 4° C. After fixing and staining in crystal violet, coloring was measured at 570 nm. Per test were used 50,000 cells, and quadruple testing was performed.

[4] = test system: β1-Integrin; assay: β1 integrin surface expression and clustering, immunofluorescence; format: cell-based, human; settings: HaCaT cells
Method: HaCaT cells were treated with Ino-PAF (obtained as described in Example 1) for 48 h. For the immunofluorescence measurement, cells were treated with 5 μM Ino-PAF. The antibody utilized for detection was directed against the β1-Integrin, which is a surface receptor conferring cell-matrix-adhesion. Immunofluorescence analysis was performed on a collagen IV matrix. 5×10^4 cells/well were left to adhere for 90 min and stained with K20-FITC (anti-β1) or Phalloidin-TRITC respectively.

[5] = test system: HaCaT cells; assay: cell proliferation ELISA, based on the incorporation of BrdU (Roche); settings: Homo sapiens, Fischer et al. unpublished data, read-out: antiproliferative effect IC50
[6] = test system: SCC-25 cells; assay: antiproliferative effect in squamous carcinoma cell line; format: cell-based; settings: SCC-25 tumor cells
Method: as §1
In SCC-25 cells the antiproliferative effects of the glycosidated phospholipid analogs is much stronger.

[7] = low but antiproliferative concentrations; cited from earlier work
[8] = cited from earlier work
[9] = test system: HaCaT cells; settings: literature, Schoen et al. 1996; cited from earlier work
[10] = test system: protein kinase C (PKC); settings: cited from earlier work

Row | Compound | pIC50 ([1]; Homo sapiens) | antiproliferative effect (in words) [1] | Viability (LD50) [2] | toxic effect LD50 [2] [µM] | cell matrix adhesion after incubation (summary of advantages) [3] | cell adhesion to extracellular matrix components fibronectin, laminin and collagen IV [3] | surface expression of integrins [4] | integrin clustering ([4]; 5 μM, 48 h) | pIC50 [5] | antiproliferative effect [6] | apoptosis [7] | water solubility [8] | pIC50 [1] | cell matrix adhesion [9] | increase of PKC activity ([10]; HaCaT cells, non-toxic concentrations) | inhibition of PKC activity in vitro ([10]; high, toxic concentrations)
1 | CCCCCCCCCCCCCCCCCCOC[C@H](COP(=O)([O-])OCC[N+](C)(C)C)OCCO[C@@H]1[C@@H](O)[C@H](O)[C@@H](O)[C@H](O)[C@@H]1O [Ino-PAF, inositol-C2-PAF] | 5.74 | strong antiproliferative effects; also recorded: stronger antiproliferative effects than the therapeutically used HePC | 15 | > 10 | increased | concentration-dependent increase; also recorded: increases cell adhesion | not affected | induces integrin clustering | 5.77 |  |  |  |  |  |  | 
2 | CCCCCCCCCCCCCCCCCCOC[C@H](COP(=O)([O-])OCC[N+](C)(C)C)O[C@H]1O[C@H](CO)[C@@H](O)[C@H](O)[C@H]1O [Glc-PAF, 1-O-octadecyl-2-O-α-D-gluco-pyranosyl-sn-glycero-3-phosphocholine] | 5.30 | inhibited cell proliferation | 9 |  |  | increases cell adhesion |  |  |  | sub-μmolar range | cause apoptosis | water-soluble |  |  |  | 
3 | CCCCCCCCCCCCCCCCOP(=O)([O-])OCC[N+](C)(C)C [HePC, hexadecyl-phosphocholine] |  |  |  |  | increased |  |  |  |  |  |  |  | 5.35 | reduce cell matrix adhesion |  | 
4 | glyceroglucophosphocholine [Glc-PC] |  | strong antiproliferative effects; also recorded: inhibited cell proliferation | 50 |  |  |  |  |  |  |  |  | water-soluble | 5.05 |  | up to 70% | do not inhibit PKC activity
